Test results taken from ChEMBL document CHEMBL1141687, “Design, syntheses, and structure-activity relationships of novel NPY Y5 receptor antagonists: 2-{3-Oxospiro[isobenzofuran-1(3H),4'-piperidin]-1'-yl}benzimidazole derivatives” (Bioorg Med Chem Lett, 2008).
The source made the active and inactive calls. The calls are words filed in the database; no cut-off is given here.

Tests used:
[1] = biological target: T1, Neuropeptide Y receptor type 5 (Homo sapiens, UniProt Q15761); experiment: Binding affinity to human NPY Y5 receptor transfected in mouse LMtk cells; format: cell-based
T1 sequence (Q15761 whole entry): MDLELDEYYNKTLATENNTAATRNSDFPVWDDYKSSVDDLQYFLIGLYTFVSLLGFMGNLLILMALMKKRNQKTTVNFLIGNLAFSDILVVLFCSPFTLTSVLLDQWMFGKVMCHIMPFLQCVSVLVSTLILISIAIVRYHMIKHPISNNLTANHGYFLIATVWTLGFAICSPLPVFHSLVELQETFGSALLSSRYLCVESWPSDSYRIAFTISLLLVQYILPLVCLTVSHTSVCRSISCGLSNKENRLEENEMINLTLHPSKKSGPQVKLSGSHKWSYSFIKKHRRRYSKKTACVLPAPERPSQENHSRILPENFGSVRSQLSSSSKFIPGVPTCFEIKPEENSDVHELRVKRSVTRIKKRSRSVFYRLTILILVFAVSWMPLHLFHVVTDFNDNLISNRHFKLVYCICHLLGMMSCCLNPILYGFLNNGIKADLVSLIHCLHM

[2] = biological target: T2, Neuropeptide Y receptor type 2 (Homo sapiens, UniProt P49146); experiment: Binding affinity to NPY Y2 receptor
T2 sequence (P49146 whole entry): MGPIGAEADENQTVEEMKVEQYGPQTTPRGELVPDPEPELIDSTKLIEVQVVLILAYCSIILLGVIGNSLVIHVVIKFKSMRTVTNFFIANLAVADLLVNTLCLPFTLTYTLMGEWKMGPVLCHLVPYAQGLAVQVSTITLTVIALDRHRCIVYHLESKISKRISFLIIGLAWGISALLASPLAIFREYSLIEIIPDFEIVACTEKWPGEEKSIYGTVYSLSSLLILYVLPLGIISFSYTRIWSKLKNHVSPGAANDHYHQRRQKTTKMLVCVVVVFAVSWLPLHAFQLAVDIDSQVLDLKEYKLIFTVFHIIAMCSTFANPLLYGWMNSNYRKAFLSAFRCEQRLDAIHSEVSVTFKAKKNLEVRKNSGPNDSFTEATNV

Rattus norvegicus [3] = experiment: Plasma concentration in rat at 10 mg/kg, po after 2 hrs; format: ADME, organism-based; design: dose 10 mg/kg, route oral
[4] = biological target: Neuropeptide Y receptor type 4 (Homo sapiens, UniProt P50391); experiment: Binding affinity to NPY Y4 receptor
Chain of Neuropeptide Y receptor type 4 (P50391 whole entry): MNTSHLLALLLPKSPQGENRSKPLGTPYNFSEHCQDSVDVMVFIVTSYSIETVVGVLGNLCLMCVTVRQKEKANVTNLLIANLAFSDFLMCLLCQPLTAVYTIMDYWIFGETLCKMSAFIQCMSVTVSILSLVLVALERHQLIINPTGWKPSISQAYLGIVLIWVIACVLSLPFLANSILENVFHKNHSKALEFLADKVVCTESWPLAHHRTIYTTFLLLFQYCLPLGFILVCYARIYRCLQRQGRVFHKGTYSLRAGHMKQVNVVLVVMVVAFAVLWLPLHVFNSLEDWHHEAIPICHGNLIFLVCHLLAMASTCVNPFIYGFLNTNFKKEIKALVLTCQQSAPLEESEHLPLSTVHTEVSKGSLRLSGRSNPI

[5] = biological target: T3, Neuropeptide Y receptor type 1 (Homo sapiens, UniProt P25929); experiment: Binding affinity to NPY Y1 receptor
T3 sequence (P25929 whole entry): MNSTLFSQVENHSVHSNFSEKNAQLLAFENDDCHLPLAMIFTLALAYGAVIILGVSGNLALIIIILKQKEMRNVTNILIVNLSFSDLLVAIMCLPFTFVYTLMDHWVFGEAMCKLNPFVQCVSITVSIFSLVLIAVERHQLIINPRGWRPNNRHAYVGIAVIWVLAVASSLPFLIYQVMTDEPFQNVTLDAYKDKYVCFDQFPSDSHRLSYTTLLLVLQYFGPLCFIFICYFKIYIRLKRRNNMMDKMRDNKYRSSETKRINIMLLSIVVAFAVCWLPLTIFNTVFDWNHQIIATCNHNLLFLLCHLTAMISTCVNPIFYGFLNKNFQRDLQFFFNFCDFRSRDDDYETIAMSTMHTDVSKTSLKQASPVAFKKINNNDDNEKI

[6] = biological target: T1, Neuropeptide Y receptor type 5; experiment: Antagonist activity at human NPY Y5 receptor transfected in mouse LMtk cells assessed as inhibition of neuropeptide Y-induced increase in […] Ca2+ level; format: functional, cell-based
Rattus norvegicus [7] = experiment: Plasma concentration in rat at 10 mg/kg, po after 4 hrs; format: ADME, organism-based; design: dose 10 mg/kg, route oral
in vivo = conditions: rat, brain and plasma, po, 10 mg/kg
Description: Ratio of drug level in brain to plasma in rat at 10 mg/kg, po after 2 hrs

Rattus norvegicus [8] = experiment: Suppression of intracerebroventricular injected D-trp34NPY-induced food intake in SD rat at 10 mg/kg, po administered 2 hrs prior to ICV injection measured after 2 hrs of D-trp34NPY challenge; format: functional, organism-based; design: dose 10 mg/kg

Row | Compound | IC50 [1] | also measured
1 | O=C1OC2(CCN(c3nc4cc(Cl)ccc4[nH]3)CC2)c2ccccc21 | 6.6 nM | IC50 [2]: > 10000 nM; Concentration (Rattus norvegicus [3]): 27.8 µM; IC50 [4]: > 10000 nM; IC50 [5]: > 10000 nM; IC50 [6]: 1.2 nM; plasma concentration (Rattus norvegicus [7]): 25.6 µM
2 | O=C1OC2(CCN(c3nc4cccc(Cl)c4[nH]3)CC2)c2ccccc21 | 51 nM | –
3 | Cc1ccc2[nH]c(N3CCC4(CC3)OC(=O)c3ccccc34)nc2c1 | 36 nM | –
4 | CNC(=O)c1ccc2nc(N3CCC4(CC3)OC(=O)c3ccccc34)[nH]c2c1 | 20 nM | –
5 | CC(=O)Nc1ccc2nc(N3CCC4(CC3)OC(=O)c3ccccc34)[nH]c2c1 | 130 nM | –
6 | O=C1OC2(CCN(c3nc4c(-c5ccccc5)cccc4[nH]3)CC2)c2ccccc21 | 17 nM | –
7 | CC(C)Cc1ccc2nc(N3CCC4(CC3)OC(=O)c3ccccc34)[nH]c2c1 | 1.8 nM | –
8 | O=C1OC2(CCN(c3nc4cc(C(F)(F)F)ccc4[nH]3)CC2)c2ccccc21 | 3.5 nM | Kp at 2 h (in vivo): 0.31; IC50 [2]: > 10000 nM; Concentration (Rattus norvegicus [3]): 15.3 µM; IC50 [4]: > 10000 nM; Activity (Rattus norvegicus [8]): Active; IC50 [5]: > 10000 nM; IC50 [6]: 6.4 nM; plasma concentration (Rattus norvegicus [7]): 17.5 µM
9 | CS(=O)(=O)N1CC2(CCN(c3nc4ccccc4[nH]3)CC2)c2ccccc21 | > 1000 nM | –
10 | O=C1O[C@]2(CC[C@@H](c3nc4cccnc4[nH]3)CC2)c2ccccc21 | 1400 nM | –
11 | O=C1OC2(CCN(c3nc4ccccc4[nH]3)CC2)c2ccccc21 | 140 nM | –
12 | O=C1OC2(CCN(c3nc4ccc(Br)cc4[nH]3)CC2)c2ccccc21 | 10 nM | –
13 | O=C1OC2(CCN(c3nc4cccnc4[nH]3)CC2)c2ccccc21 | 1600 nM | –
14 | O=C1OC2(CCN(c3nc4cc(-c5ccccc5)ccc4[nH]3)CC2)c2ccccc21 | 2.4 nM | Kp at 2 h (in vivo): 0.35; IC50 [2]: > 10000 nM; Concentration (Rattus norvegicus [3]): 1.8 µM; IC50 [4]: > 10000 nM; IC50 [5]: > 10000 nM; IC50 [6]: 1.8 nM; plasma concentration (Rattus norvegicus [7]): 1.3 µM
15 | O=C1OC2(CCN(c3nc4ccccc4s3)CC2)c2ccccc21 | > 10000 nM | –
16 | O=C1OC2(CCN(c3nc4cc5c(cc4[nH]3)OCO5)CC2)c2ccccc21 | 9.3 nM | –
17 | O=C1OC2(CCN(c3nc4cc(F)c(F)cc4[nH]3)CC2)c2ccccc21 | 4.8 nM | –
18 | COc1ccc2[nH]c(N3CCC4(CC3)OC(=O)c3ccccc34)nc2c1 | 37 nM | –
19 | O=C1OC2(CCN(c3nc4cc(Cl)cc(Cl)c4[nH]3)CC2)c2ccccc21 | 5.7 nM | –
20 | O=C1OC2(CCN(c3nc4cc(Cl)c(Cl)cc4[nH]3)CC2)c2ccccc21 | 1.6 nM | IC50 [2]: > 10000 nM; Concentration (Rattus norvegicus [3]): 2.9 µM; IC50 [4]: > 10000 nM; IC50 [5]: > 10000 nM; IC50 [6]: 1.4 nM; plasma concentration (Rattus norvegicus [7]): 4.6 µM

Row | Compound | IC50 [1] | also measured
21 | O=C1OC2(CCN(c3nc4ccc([N+](=O)[O-])cc4[nH]3)CC2)c2ccccc21 | 10 nM | –
22 | O=C1OC2(CCN(Cc3nc4ccccc4[nH]3)CC2)c2ccccc21 | 4900 nM | –
23 | O=C1OC2(CCN(c3nc4cc(Cl)c(F)cc4[nH]3)CC2)c2ccccc21 | 6.7 nM | –
24 | CS(=O)(=O)Nc1ccc2nc(N3CCC4(CC3)OC(=O)c3ccccc34)[nH]c2c1 | 56 nM | –
25 | O=C(O)c1ccc2[nH]c(N3CCC4(CC3)OC(=O)c3ccccc34)nc2c1 | > 1000 nM | –
26 | COC(=O)c1ccc2[nH]c(N3CCC4(CC3)OC(=O)c3ccccc34)nc2c1 | 2.7 nM | Kp at 2 h (in vivo): 0.08; IC50 [2]: > 10000 nM; Concentration (Rattus norvegicus [3]): 3.2 µM; IC50 [4]: > 10000 nM; IC50 [5]: > 10000 nM; IC50 [6]: 1.5 nM; plasma concentration (Rattus norvegicus [7]): 0.1 µM
27 | Cc1cc2nc(N3CCC4(CC3)OC(=O)c3ccccc34)[nH]c2cc1C | 9.2 nM | –
28 | Cc1cccc2[nH]c(N3CCC4(CC3)OC(=O)c3ccccc34)nc12 | 74 nM | –
29 | O=C1OC2(CCN(c3nc4cccc(C(F)(F)F)c4[nH]3)CC2)c2ccccc21 | 83 nM | –
30 | O=C1OC2(CCN(c3nc4c(F)cccc4[nH]3)CC2)c2ccccc21 | 500 nM | –
31 | NC(=O)c1ccc2nc(N3CCC4(CC3)OC(=O)c3ccccc34)[nH]c2c1 | 110 nM | –
32 | O=C1OC2(CCN(c3nc4cc5c(cc4[nH]3)OC(F)(F)O5)CC2)c2ccccc21 | 2.2 nM | –
33 | CS(=O)(=O)c1ccc2[nH]c(N3CCC4(CC3)OC(=O)c3ccccc34)nc2c1 | 85 nM | –
34 | O=C1OC2(CCN(c3nc4cc(F)ccc4[nH]3)CC2)c2ccccc21 | 28 nM | –
35 | CN(C)C(=O)c1ccc2nc(N3CCC4(CC3)OC(=O)c3ccccc34)[nH]c2c1 | 58 nM | –
36 | COc1cccc2[nH]c(N3CCC4(CC3)OC(=O)c3ccccc34)nc12 | 250 nM | –
37 | N#Cc1ccc2[nH]c(N3CCC4(CC3)OC(=O)c3ccccc34)nc2c1 | 19 nM | –
38 | O=C1O[C@]2(CC[C@H](c3nc4ncccc4[nH]3)CC2)c2ccccc21 | 91 nM | –
39 | CCOC(=O)c1ccc2nc(N3CCC4(CC3)OC(=O)c3ccccc34)[nH]c2c1 | 2 nM | –
